Values quoted from earlier work in patent US8653307B2 (California Institute of Technology, priority 2011, dated 2014).

Tests used:
PI3Kα = PI3Kα (Homo sapiens, UniProt P42336)
LoVo (human colon) cells = conditions: read-out: IC50 (cytotoxicity)
CaCo (human colon) = CaCo (human colon) cells; read-out: IC50 (cytotoxicity)
[1] = system: MDA-468 breast cancer line; conditions: read-out: IC50 (cytotoxicity)

Sequence of PI3Kα (P42336 whole entry): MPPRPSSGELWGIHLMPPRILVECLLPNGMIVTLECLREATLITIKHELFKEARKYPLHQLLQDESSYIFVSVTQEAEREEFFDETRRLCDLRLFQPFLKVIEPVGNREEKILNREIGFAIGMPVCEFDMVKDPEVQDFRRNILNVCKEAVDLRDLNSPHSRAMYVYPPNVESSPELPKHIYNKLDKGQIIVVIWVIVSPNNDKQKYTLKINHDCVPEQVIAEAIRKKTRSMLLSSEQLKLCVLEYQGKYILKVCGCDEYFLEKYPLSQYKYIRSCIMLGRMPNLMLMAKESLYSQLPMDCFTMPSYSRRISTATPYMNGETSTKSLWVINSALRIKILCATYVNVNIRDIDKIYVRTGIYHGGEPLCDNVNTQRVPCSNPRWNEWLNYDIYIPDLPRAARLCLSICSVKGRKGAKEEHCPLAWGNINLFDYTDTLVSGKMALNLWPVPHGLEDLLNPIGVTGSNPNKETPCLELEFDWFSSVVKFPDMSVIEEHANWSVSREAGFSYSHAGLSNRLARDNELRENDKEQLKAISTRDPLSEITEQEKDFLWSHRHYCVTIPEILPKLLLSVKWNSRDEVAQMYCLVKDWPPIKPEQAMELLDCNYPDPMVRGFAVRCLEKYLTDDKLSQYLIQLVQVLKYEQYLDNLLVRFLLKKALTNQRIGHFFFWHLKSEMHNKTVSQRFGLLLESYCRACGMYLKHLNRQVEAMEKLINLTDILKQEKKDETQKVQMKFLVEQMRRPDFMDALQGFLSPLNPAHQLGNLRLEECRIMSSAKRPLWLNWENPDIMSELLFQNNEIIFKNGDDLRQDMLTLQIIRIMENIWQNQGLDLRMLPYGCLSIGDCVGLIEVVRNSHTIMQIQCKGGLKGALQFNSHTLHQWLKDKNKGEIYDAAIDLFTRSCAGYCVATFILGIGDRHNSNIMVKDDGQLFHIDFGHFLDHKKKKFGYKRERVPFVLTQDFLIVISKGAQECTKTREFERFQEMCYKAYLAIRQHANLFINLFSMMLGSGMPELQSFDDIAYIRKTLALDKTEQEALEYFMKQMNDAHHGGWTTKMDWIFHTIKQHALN
Sequence of PI3Kα (P27986 whole entry partner): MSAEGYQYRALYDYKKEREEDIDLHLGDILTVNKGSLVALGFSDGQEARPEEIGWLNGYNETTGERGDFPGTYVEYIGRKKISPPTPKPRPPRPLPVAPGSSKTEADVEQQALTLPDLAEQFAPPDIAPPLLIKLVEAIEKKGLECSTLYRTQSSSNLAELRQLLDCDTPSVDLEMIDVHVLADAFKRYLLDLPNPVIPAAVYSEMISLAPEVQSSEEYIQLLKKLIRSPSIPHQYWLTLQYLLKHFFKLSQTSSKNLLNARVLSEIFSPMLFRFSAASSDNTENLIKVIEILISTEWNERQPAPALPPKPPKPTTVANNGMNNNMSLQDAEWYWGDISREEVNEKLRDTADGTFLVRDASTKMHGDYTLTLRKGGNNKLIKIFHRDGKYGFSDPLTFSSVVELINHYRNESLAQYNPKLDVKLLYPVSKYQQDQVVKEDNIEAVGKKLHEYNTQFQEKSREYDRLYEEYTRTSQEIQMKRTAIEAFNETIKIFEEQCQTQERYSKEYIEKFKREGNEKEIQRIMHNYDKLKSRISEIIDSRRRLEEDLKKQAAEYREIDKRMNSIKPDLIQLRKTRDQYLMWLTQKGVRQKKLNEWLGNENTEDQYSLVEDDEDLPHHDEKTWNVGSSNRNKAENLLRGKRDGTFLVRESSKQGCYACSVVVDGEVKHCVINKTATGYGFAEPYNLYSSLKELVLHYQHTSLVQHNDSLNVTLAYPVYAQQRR

Row | Compound | selectivity among PI3Ks / related enzymes (in words) (PI3Kα) | IC50 (LoVo (human colon) cells) [nM] | IC50 (CaCo (human colon)) [nM] | IC50 [1] [nM]
1 | O=c1cc(N2CCOCC2)oc2c(-c3ccccc3)cccc12 [LY294002] | somewhat selective |  |  | 
2 | liphagal |  | 580 | 670 | 1580
